Measurements: US20050250837A1, “Use of C-Raf inhibitors for the treatment of neurodegenerative diseases” (priority 2002, published 2005)

Tests used:
[1] = test system: cerebellar granule neurons; experiment: LK-induced apoptosis of cultured cerebellar granule neurons (MTT viability); assay type: cell-based, rat; conditions: for effect of MEK inhibitor on neuroprotection by GW5074: LK + 1 uM GW5074 with 40 uM PD98059 or 10 uM U0126
Procedure: Cultured cerebellar granule neurons undergo apoptosis when switched from HK to medium containing LK (D'Mello et al., 1993). […] Neuronal cultures were switched to medium containing LK, or LK medium containing different doses of GW5074. Cell viability was quantified 24 hours later. Control cultures received HK medium. […] Protection against LK-induced apoptosis is maximal at 1 uM.
Granule neuron cultures were obtained from dissociated cerebella of 7-8 day old rats as described previously (D'Mello et al., 1993). Cells were plated in Basal Eagle's Medium with Earles salts (BME) supplemented with 10% fetal bovine serum (FBS), 25 mM KCl, 2 mM glutamine (Gibco-BRL), and 100 ug/ml gentamycin on dishes coated with poly-L-lys ine in 24-well dishes at a density 1.0×10^6 cells/well, 1.2×10^7 cells/60 mm dish, or 3.0×10^7 cells/100 mm dish. Cytosine arabinofuranoside (10 uM) was added to the culture medium 18-22 hours after plating to prevent replication of non-neuronal cells. Cultures were maintained for 6-7 days prior to experimental treatments. For this, the cells were rinsed once and then maintained in low K^+ medium (serum-free BME medium, 5 mM KCl) or high K^+ medium (serum-free BME medium, supplemented with 20 mM KCl). When used to treat cultures, GW5074 was added at the time when cells were switched to LK medium. Treatment of cultures with pharmacological inhibitors was initiated 15 min prior to rinsing and was maintained through the subsequent incubation in LK or HK medium unless specified otherwise. For MPP+ and methylmercury treatments, 7-8 day old cultures were switched to HK medium containing 200 uM MPP+ or 0.5 uM methylmercury. Viability was assayed 24 hours later.
Neuronal survival was quantified by the MTT assay as previously described (Koulich et al., 2001). Briefly, the tetrazolium salt MTT [3-(4,5-dimethyl-2-thiazolyl)-2,5-diphenyl-2H tetrazolium bromide] was added to the cultures at a final concentration of 1 mg/ml, and incubation of the culture was continued in the CO2 incubator for a further 30 min at 37° C. The assay was stopped by adding lysis buffer [20% SDS in 50% N,N-dimethyl formamide, pH 4.7]. The absorbance was measured specrophotometrically at 570 nm after an overnight incubation at room temperature. The absorbance of a well without cells was used as background and subtracted. Results obtained using the MTT assays were confirmed using the fluorescein-diacetate method for quantification of cell viability, as previously described (D'Mello et al., 1993). Data are presented as mean+/−standard deviation. Statistical analysis was performed using ANOVA and Student-Neuman-Keuls' test.

ERK 1/2 = ERK 1/2 phosphorylation in neuronal cultures, Western blot; assay type: cell-based, rat; conditions: LK + 1 uM GW5074 + 40 uM PD98059, 1 hour
Source text: Activation of all three Raf proteins results in activation of MEK and ERK.
Survival of cerebellar granule neurons can be maintained by BDNF and this effect of BDNF is mediated by the Raf-MEK-ERK signaling pathway (Bonni et al., 1999). The Raf-MEK-ERK pathway is also involved in promoting survival of other neuronal and normeuronal cell types. A potent blocker of the Raf-MEK-ERK pathway is PD98059 (Alessi et al., 1995). In paradigms in which the Raf-MEK-ERK pathway mediates neuronal survival, such as BDNF-treated cerebellar granule neurons, the presence of […] blocks survival (Bonni et al., 1999). […] Lysates from the cultures were subjected to Western blotting using an antibody specific for phospho-ERK.
(§1) For whole-cell lysates, the culture medium was discarded, the neurons washed twice with ice-cold phosphate-buffered saline (PBS), and lysed in lysis buffer (1% Triton, 20 mM Tris-HCl (pH 7.5), 150 mM NaCl, 1 mM Na2EDTA, 1 mM EGTA, 2.5 mM sodium pyrophosphate, 1 mM beta-glycerophosphate, 1 mM Na3VO4, 1 μg/ml leupeptin and 1× protease inhibitor mixture). Protein concentrations were measured using a Bradford protein assay kit (Bio-Rad), and equivalent amounts of protein were mixed with 6×SDS-PAGE sample buffer. […] After staining with Ponceau S to verify uniformity of protein loads/transfer, the membranes were analyzed for immunoreactivity. […]

C-Raf = molecular target: T1, C-Raf (Rattus norvegicus, UniProt P11345); experiment: Activity of C-Raf immunoprecipitated from neuronal lysates, GST-MEK substrate, phospho-MEK Western; assay type: cell-based
T1 construct: Activities of endogenous C-Raf and B-Raf activity was assayed by measuring the ability of kinase immunoprecipitated from neuronal lysates; endogenous in cells; host or cells: primary rat cerebellar granule neurons
T1 sequence (P11345 whole entry): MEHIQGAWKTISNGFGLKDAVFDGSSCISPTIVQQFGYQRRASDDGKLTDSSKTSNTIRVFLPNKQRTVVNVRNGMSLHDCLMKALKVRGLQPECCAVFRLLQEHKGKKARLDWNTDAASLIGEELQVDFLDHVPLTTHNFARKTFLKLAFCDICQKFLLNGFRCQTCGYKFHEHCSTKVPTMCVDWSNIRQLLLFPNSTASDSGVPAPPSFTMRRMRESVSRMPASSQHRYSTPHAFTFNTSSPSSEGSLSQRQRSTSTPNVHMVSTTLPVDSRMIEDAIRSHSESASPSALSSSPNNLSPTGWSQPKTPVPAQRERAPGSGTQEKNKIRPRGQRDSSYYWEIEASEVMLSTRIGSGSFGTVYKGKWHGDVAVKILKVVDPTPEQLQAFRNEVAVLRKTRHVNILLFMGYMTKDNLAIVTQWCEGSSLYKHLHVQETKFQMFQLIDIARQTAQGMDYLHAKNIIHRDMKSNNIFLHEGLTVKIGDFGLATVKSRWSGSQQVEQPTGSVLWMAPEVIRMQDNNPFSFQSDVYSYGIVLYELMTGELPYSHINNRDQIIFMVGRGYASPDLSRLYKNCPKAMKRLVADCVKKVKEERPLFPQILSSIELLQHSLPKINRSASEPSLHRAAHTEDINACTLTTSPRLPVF
Procedure: The immunoprecipitated C-Raf was used in in vitro kinase assays using GST-MEK as substrate and the reaction products subjected to Western analysis. Phosphorylation of MEK was detected using a phospho-MEK antibody. […] After 1 hour of treatment, the cultures were lysed, C-Raf immunoprecipitated from the lysate and used in an in vitro kinase assay with MEK as substrate. The reaction mixture was subjected to Western analysis using a phospho-MEK antibody as probe.
(Hall-Jackson et al., 1999). […] Lysates from the cultures were used in a kinase reaction with MEK as substrate. […] Phosphorylation of MEK was detected by Western blot analysis using an phospho-MEK antibody and the same blot was reprobed with a C-Raf antibody.
After treatment, cultures of 7-8-day old neurons were washed twice with ice-cold PBS and lysed in ice cold lysis buffer. The lysates were centrifuged for 10 min at 10,000 rpm at 4° C. Protein concentrations of the supernatant were measured using a Bradford protein assay kit (Bio-Rad), and equivalent amounts of protein were incubated overnight with primary antibody (1.0-2 ug) and then for 2 h with 20 ul Protein A/G PLUS-Agarose (Santa Cruz Biotech.) Immunoprecipitates were collected by centrifugation at 2,500 rpm for 5 min at 4° C. and washed three times with lysis buffer, and pellets resuspended in electrophoresis sample buffer (187.5 mM Tris-HCl (pH 6.8 at 25° C.), 6% SDS, 30% glycerol, 150 mM DTT, 0.03% bromophenol blue), boiled for 4 min and subjected to SDS-polyacrylamide gel electrophoresis.
Activities of endogenous C-Raf and B-Raf activity was assayed by measuring the ability of kinase immunoprecipitated from neuronal lysates to phosphorylate a kinase-dead recombinant GST-MEK1 substrate. Following immunoprecipitation and multiple washes with lysis buffer, lysis buffer supplemented with 350 mM NaCl, and kinase buffer (25 mM HEPES pH 7.4 and 10 mM MgCl2), in vitro kinase assays are performed on the immune complexes using purified recombinant GST-MEK1 K97M protein as a substrate in kinase buffer supplemented with 85 μM ATP for 35 minutes at 30° C. Reactions are stopped by the addition of 3×SDS sample buffer and boiled for five minutes. Proteins are resolved by SDS-PAGE and subjected to Western blotting. The level of phosphorylated MEK is detected by a phospho-MEK antibody.

[2] = test system: cerebellar granule neurons; experiment: Apoptosis of neurons infected with adenoviral dominant-negative Akt; assay type: cell-based, rat; conditions: LK + 1 uM GW5074 or 25 ng/ml IGF-1
Source text: Five day old neuronal cultures were infected with adenoviral vectors expressing either GFP or hemagluttinin (HA)-tagged dominant-negative Akt. […] Infected neurons were detected by positive staining for GFP or HA by immunocytochemistry. The proportion of apoptotic cells (condensed or fragmented nuclei) as a percentage of total infected neurons was quantified following DAPI-staining.
DnAkt and control recombinant adenovirus expressing green fluorescent protein (Ad-GFP) are propagated in HEK293T cells and purified by cesium chloride density gradient centrifugation. After quantification of titer, virus at an MOI of 10 are used to infect granule neuron cultures 5 days after plating by direct addition to the medium. Treatments are performed 24 hours after addition of virus.

Akt = Akt phosphorylation (Ser473) in neuronal cultures, Western blot; assay type: cell-based, rat; conditions: added to cultures already switched to LK
Procedure: The best-studied anti-apoptotic pathway in neurons is the PI-3 kinase—Akt signaling pathway (D'Mello et al., 1997; Dudek et al., 1997; Miller et al, 1997a). IGF-1, a potent survival-promotic factor for granule neurons mediates its effect by activating the PI-3 kinase-Akt pathway (Datta et al., 1997; Dudek et al., 1997; D'Mello et al., 1998). […] Switching cerebellar granule neurons from serum-containing HK medium in which they are cultured and allowed to mature, to serum-free LK or HK medium, causes a rapid downregulation of Akt phosphorylation and activity, which can be prevented by IGF-1 (Kumari et al., 2001). […] The same blot was reprobed with an antibody against phospho-Gskβ. Also loaded on the gel were lysates from untreated cultures (maintained in medium containing serum and high K+) and a culture treated for 1 hour with 25 ng/ml IGF-1. […] GSK3βis a proapoptotic molecule that is activated during apoptosis in many neuronal and normeuronal systems. Under survival promoting conditions GSK3β is kept inactivated by phosphorylation, a modification that can be induced by Akt. […] Another proapoptotic molecule that is phosphorylated and inactivated by Akt is the transcription factor, Forkhead (Linseman et al., 2002). […] Switching of neurons to LK medium leads to a rapid downregulation of Akt activity within 2 hours.
as §1

## CC(C)=CCC/C(C)=C/CC/C(C)=C/CSc1ccccc1C(=O)O [FTS, S-trans, trans-farnesylthiosalicylic acid]
[1]; LK + 1 uM GW5074 + 10 uM FTS, 24 hour
  effect of Ras antagonist on neuroprotection by GW5074: blocks the neuroprotective effect of GW5074

## COc1cccc(-c2cc(=O)c3ccccc3o2)c1N [PD98059, reference compound]
ERK 1/2
  effect on stimulation of ERK by GW5074: blocks the stimulation of ERK by GW5074
[1]
  effect of MEK inhibitor on neuroprotection by GW5074: no effect on the neuroprotective effect of GW5074

## N#CC(=C(/N)Sc1ccccc1N)/C(C#N)=C(\N)Sc1ccccc1N [U0126]
[1]
  effect of MEK inhibitor on neuroprotection by GW5074: failed to reduce survival by GW5074

## Cc1ccc(NC(=O)c2cccc(N(C)C)c2)cc1NC(=O)c1ccc(O)cc1 [ZM336372, N-[5-(3-Dimethylaminobenzamido)-2-methylphenyl]-4-hydroxybenzamide, reference compound]
C-Raf; 10 uM ZM336372 added to kinase reaction mixture
  effect on immunoprecipitated C-Raf when added in vitro: inhibited in vitro by ZM336372
C-Raf; LK + 50 uM ZM336372, 1 hour
  activity of C-Raf immunoprecipitated from treated cultures: elevated activity
[1]; LK medium containing 100 uM ZM336372
  inhibition of LK-mediated apoptosis: inhibits LK-mediated apoptosis

## IGF-1: a potent survival-promotic factor for granule neurons
[2]
  effect of dominant-negative Akt on survival promotion: reduces the survival-promoting effect of IGF-1
Akt
  de novo Akt activation after downregulation in LK: robust increase in Akt phosphorylation
